Source: patent US20220396794A1, “APTAMERS AGAINST TRANSFERRIN RECEPTOR (TfR)” (APTERNA LIMITED, priority 2019, published 2022)

How the values were obtained:
PANC-Luc tumors = assay: Liver-metastatic pancreatic cancer mouse model, combinational treatment with gemcitabine; type: in vivo, NOD/SCID mice; conditions: conjugate 1 nmol 3 times/week I.P. combined with gemcitabine 50 mg/kg 2 times/week I.V., compared with PBS
Procedure: Intrahepatic pancreatic cancer liver-metastatic mouse model. To create an animal model harboring traceable tumors, a firefly luciferase fragment was inserted into the pLKO.1-AS3 backbone encoding the neo gene (National RNAi Core, Academia Sinica, Taiwan). One day before transduction, 293T cells were plated onto a 6-well plate. On the day of transduction, the medium was replaced with DMEM containing serial dilutions of the transfer plasmids and incubated for 5 h, then the medium was replaced. After two days, the culture medium containing recombinant lentiviral particles was obtained. PANC-1 cells were incubated with recombinant lentiviral particles for 24 h. […] Luciferase expression was assessed using the Luciferase Assay System. […] For the combinational treatment with gemcitabine, tumors were allowed to grow for 2 weeks after inoculation until they could be detected using an IVIS system, then mice were randomly divided into five groups of 10 animals/group. […] Tumor growth was monitored by evaluating bioluminescence using an IVIS 200 in vivo imaging platform (Caliper Life Sciences, Alameda, Calif.) and measuring the difference from before the first injection and one day after the last injection. […] The mice were imaged using the IVIS 200 and bioluminescent signals were analyzed using Living Image Software (Caliper Life Sciences, Alameda, Calif.). […]

albumin mRNA = assay: Analysis of gene expression in vivo in C57BL/6J mice, albumin; conditions: B6 mice, 3 doses of 1 nmol via tail vein, tissue harvesting on day 8
Procedure: (§1) Relative gene expression analysis by qPCR in vitro. For analyzing gene activation and protein expression, PANC-1 cells were seeded in duplicate into 24-well plates at a density of 1×10^5 cells per well. tTR14 or control aptamer (IRRE) conjugated to C/EBPα-saRNAs were added directly to the cells, at a final concentration of 100 nM or 200 nM. The treatment was repeated 24 h later and cells were harvested at final incubation times of 48 or 72 h. Total RNA was extracted for reverse transcription using an RNeasy kit (Qiagen). Target cDNA amplification and real-time PCR was performed using a Bio-rad kit (SsoAdvanced™ Universal SYBR® Green Supermix). For normalization, the reference gene 18S was used. To determine gene expression in vivo samples, total RNA was extracted for reverse transcription (QuantiFast® Reverse transcription, Qiagen) and target cDNA was amplified using real-time PCR (QuantiFast® SYBR®Green Master mix). The cDNA probes used were purchased as prevalidated QuantiTect® SYBR probes from Qiagen. Real-time PCR was performed with validated QuantiTect® SYBR probes (Qiagen) or validated FAM probes (Applied Biosystems).
(§2) Analysis of gene expression in vivo. Female or male at 6 week C57BL/6J mice were purchased from the Jackson laboratory for three conjugates; TC, TCT, and TCUT. […]

C/EBPα mRNA [1] = assay: Relative gene expression by qPCR in vitro, C/EBPα; type: cell-based, human
Procedure: as §1

p21 mRNA = assay: Relative gene expression by qPCR in vitro, p21; type: cell-based, human
Procedure: as §1

PANC-1 cells = assay: MTS assay, inhibition of cell proliferation; type: cell-based, human
Procedure: MTS assay. […] Cells were treated with tTR14-C/EBPα and […] at 100 nM or 200 nM twice at 24-h intervals.

C/EBPα mRNA [2] = assay: Analysis of gene expression in vivo in C57BL/6J mice, C/EBPα; conditions: B6 mice, 3 doses of 1 nmol via tail vein
Procedure: as §1, §2

[3] = PANC-1, 100 nM, 48 or 72 h (FIG. 7)
[4] = PANC-1, 72 h, 100 nM, compared to IRRE control group (FIG. 3)

With “TCUT: TR14 ST1-3 with CEBPA sense, a 10-uracil spacer and albumin affinity tag (UUUAUUCACAUUUUUGAAUUGAGCGGUCAUUGUCACUGGUCUUUUUUUUUUUUN; listed as RNA, chemistry not given here)” the “tumor burden by measuring photon increase” value (PANC-Luc tumors) was “significant reduction of tumor burden”, the “albumin mRNA levels in liver” value (albumin mRNA) was “none increased” and the “upregulation of C/EBPα” value (C/EBPα mRNA [1]; [3]) was “upregulation”. For the same substance, the “mRNA expression of C/EBPα” value (C/EBPα mRNA [1]; [4]) was “upregulation”, the “upregulation of p21” value (p21 mRNA; [3]) was “upregulation” and the “mRNA expression of p21” value (p21 mRNA; [4]) was “upregulation”. The “cell proliferation by MTS assay” value (PANC-1 cells; [3]) was “inhibited the cancer cell proliferation”, the “cell proliferation by MTS assay” value (PANC-1 cells; PANC-1, 72 h, compared to IRRE control group (FIG. 3)) was “inhibition of tumor cell proliferation” and the “mRNA levels of C/EBPα in brain tissue” value (C/EBPα mRNA [2]; tissue harvesting on day 8) was “no upregulation”. For the same substance, the “mRNA levels of C/EBPα in liver” value (C/EBPα mRNA [2]; tissue harvesting on day 8, compared to untreated group) was “increased”.
